Read-outs that look alike come from different tables or passages of the source.
Assays:
[1] = target: Mcl-1 (Homo sapiens (Human), UniProt Q07820); assay: Fluorescence polarization anisotropy (FPA) competition assay, FITC-Bak or FITC-Bim BH3 peptide; assay type: binding; settings: read-out: Ki for Inhibition of Mcl-1 by FPA assay
[2] = tested on: H929 human cancer cell lines; assay: Cellular viability / proliferation (Cell TiterGlo, 72 h); assay type: cell-based
Method in brief: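 1,000 cells/well, 10% FBS medium; compound added at 24 h, 2-fold dilutions from 50 μM top, DMSO <1% final. 72 h exposure, CellTiterGlo 30 min RT dark, luminescence read. IC50 by 4-parameter fit.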

[3] = Homo sapiens, NCI-H929, 72 h, read-out: GI50 on cellular proliferation of H929 human cancer cell lines, H929 cells, 72 h, Cell TiterGlo, 10% FBS
[4] = read-out: GI50 on cellular proliferation of H929 human cancer cell lines, H929 cells, 72 h, Cell TiterGlo, 10% FBS

Mcl-1, sequence (Q07820 172-327): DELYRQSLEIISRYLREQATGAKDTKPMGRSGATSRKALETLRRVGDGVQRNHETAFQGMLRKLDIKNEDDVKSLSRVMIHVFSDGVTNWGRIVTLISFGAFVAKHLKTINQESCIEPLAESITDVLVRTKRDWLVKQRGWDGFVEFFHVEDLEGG

In the case of `Cc1cc(OCCCc2c3n(c4c(-c5c(C)nn(C)c5C)c(Cl)ccc24)[C@H](C)CN(c2cccc4c2cc(C(=O)O)n4Cc2ccccn2)C3=O)cc(C)c1Cl` [Example 352, (R)-4-(7-chloro-10-(3-(4-chloro-3,5-dimethylphenoxy)propyl)-4-methyl-1-oxo-6-(1,3,5-trimethyl-1H-pyrazol-4-yl)-3,4-dihydropyrazino[1,2-a]indol-2(1H)-yl)-1-(pyridin-2-ylmethyl)-1H-indole-2-carboxylic acid], the Ki [1] is reported as 2.8 nM and the GI50 [2, 3] is reported as 5100 nM.

Compound `Cc1cc(OCCCc2c3n(c4c(-c5c(C)nn(C)c5C)c(Cl)ccc24)[C@H](C)CN(c2cccc4c(C(=O)O)cn(C)c24)C3=O)cc(C)c1Cl` [Example 69, (R)-7-(7-Chloro-10-(3-(4-chloro-3,5-dimethylphenoxy)propyl)-4-methyl-1-oxo-6-(1,3,5-trimethyl-1H-pyrazol-4-yl)-3,4-dihydropyrazino[1,2-a]indol-2(1H)-yl)-1-methyl-1H-indole-3-carboxylic acid] has a Ki [1] of less than 1 nM and a GI50 [2, 4] of less than 200 nM.

Compound `COc1ccc(N2C[C@@H](C)n3c(c(CCCOc4cc(C)c(Cl)c(C)c4)c4ccc(Cl)c(-c5c(C)nn(C)c5C)c43)C2=O)c2c1cc(C(=O)O)n2Cc1ccccn1` [Example 313, 7-[(4R)-7-chloro-10-[3-(4-chloro-3,5-dimethyl-phenoxy)propyl]-4-methyl-1-oxo-6-(1,3,5-trimethylpyrazol-4-yl)-3,4-dihydropyrazino[1,2-a]indol-2-yl]-4-methoxy-1-(2-pyridylmethyl)indole-2-carboxylic acid] has a Ki [1] of less than 1 nM and a GI50 [2, 3] of less than 200 nM.

`Cc1cc(N2C[C@@H](C)n3c(c(CCCOc4cc(C)c(Cl)c(C)c4)c4ccc(Cl)c(-c5c(C)nn(C)c5C)c43)C2=O)c2c(c1)c(C)c(C(=O)O)n2C` [Example 336, (R)-7-(7-Chloro-10-(3-(4-chloro-3,5-dimethylphenoxy)propyl)-4-methyl-1-oxo-6-(1,3,5-trimethyl-1H-pyrazol-4-yl)-3,4-dihydropyrazino[1,2-a]indol-2(1H)-yl)-1,3,5-trimethyl-1H-indole-2-carboxylic acid] gave a Ki [1] of less than 1 nM and a GI50 [2, 3] of 250 nM.

For `Cc1cc(OCCCc2c3n(c4c(-c5c(C)nn(C)c5C)c(Cl)ccc24)[C@H](C)CN(c2cccc4cc(C(=O)O)n(Cc5ccccn5)c24)C3=O)cc(C)c1Cl` [Example 247, 7-[(4R)-7-chloro-10-[3-(4-chloro-3,5-dimethyl-phenoxy)propyl]-4-methyl-1-oxo-6-(1,3,5-trimethylpyrazol-4-yl)-3,4-dihydropyrazino[1,2-a]indol-2-yl]-1-(2-pyridylmethyl)indole-2-carboxylic acid], the Ki [1] was less than 1 nM and the GI50 [2, 4] was less than 200 nM.

With `Cc1cc(OCCCc2c3n(c4c(-c5c(C)nc(CN6CCC(O)C6)nc5C)c(Cl)ccc24)[C@H](C)CN(c2cn(C)c4ccc(C(=O)O)cc24)C3=O)cc(C)c1Cl` (stereo partly drawn) [Example 397, 3-((4R)-7-Chloro-10-(3-(4-chloro-3,5-dimethylphenoxy)propyl)-6-(2-((3-hydroxypyrrolidin-1-yl)methyl)-4,6-dimethylpyrimidin-5-yl)-4-methyl-1-oxo-3,4-dihydropyrazino[1,2-a]indol-2(1H)-yl)-1-methyl-1H-indole-5-carboxylic acid] the Ki [1] was 1.2 nM and the GI50 [2, 3] was 340 nM.

Work on `Cc1cc(OCCCc2c3n(c4c(-c5c(C)ncnc5C)c(Cl)ccc24)CCCNC3=O)cc(C)c1Cl` [Example 120, 8-Chloro-11-(3-(4-chloro-3,5-dimethylphenoxy)propyl)-7-(4,6-dimethylpyrimidin-5-yl)-2,3,4,5-tetrahydro-1H-[1,4]diazepino[1,2-a]indol-1-one] yielded a Ki [1] of 39 nM and a GI50 [2, 3] of 12000 nM.

For `Cc1cc(OCCCc2c3n(c4c(-c5c(C)nn(CCN6CCCC6)c5C)c(Cl)ccc24)[C@H](C)CN(c2cccc4c2cc(C(=O)O)n4C)C3=O)cc(C)c1Cl` [Example 318, (R)-4-(7-Chloro-10-(3-(4-chloro-3,5-dimethylphenoxy)propyl)-6-(3,5-dimethyl-1-(2-(pyrrolidin-1-yl)ethyl)-1H-pyrazol-4-yl)-4-methyl-1-oxo-3,4-dihydropyrazino[1,2-a]indol-2(1H)-yl)-1-methyl-1H-indole-2-carboxylic acid], the Ki [1] was 1.5 nM and the GI50 [2, 3] was 820 nM.

With `Cc1noc(-c2ccc3c(c2)c(N2C[C@@H](C)n4c(c(CCCOc5cc(C)c(Cl)c(C)c5)c5ccc(Cl)c(-c6c(C)ncnc6C)c54)C2=O)cn3C)n1` [Example 395, (R)-7-Chloro-10-(3-(4-chloro-3,5-dimethylphenoxy)propyl)-6-(4,6-dimethylpyrimidin-5-yl)-4-methyl-2-(1-methyl-5-(3-methyl-1,2,4-oxadiazol-5-yl)-1H-indol-3-yl)-3,4-dihydropyrazino[1,2-a]indol-1(2H)-one] the Ki [1] was 2.2 nM and the GI50 [2, 3] was 860 nM.

`COc1ccc(N2C[C@@H](C)n3c(c(CCCOc4cc(C)c(Cl)c(C)c4)c4ccc(Cl)c(-c5c(C)nn(C)c5C)c43)C2=O)c2c1cc(C(N)=O)n2C` [Example 412, (R)-7-(7-Chloro-10-(3-(4-chloro-3,5-dimethylphenoxy)propyl)-4-methyl-1-oxo-6-(1,3,5-trimethyl-1H-pyrazol-4-yl)-3,4-dihydropyrazino[1,2-a]indol-2(1H)-yl)-4-methoxy-1-methyl-1H-indole-2-carboxamide] showed a Ki [1] of 1.3 nM and a GI50 [2, 3] of 450 nM.

For `Cc1cc(OCCCc2c3n(c4c(-c5c(C)nn(C)c5C)c(Cl)ccc24)[C@H](C)CN(c2cc(C(C)C)cc4cc(C(=O)O)n(Cc5ccccn5)c24)C3=O)cc(C)c1Cl` [Example 359, (R)-7-(7-Chloro-10-(3-(4-chloro-3,5-dimethylphenoxy)propyl)-4-methyl-1-oxo-6-(1,3,5-trimethyl-1H-pyrazol-4-yl)-3,4-dihydropyrazino[1,2-a]indol-2(1H)-yl)-5-isopropyl-1-(pyridin-2-ylmethyl)-1H-indole-2-carboxylic acid], the Ki [1] was 1.4 nM and the GI50 [2, 3] was 290 nM.

`Cc1nn(C)c(C)c1-c1c(Cl)ccc2c(CCCOc3ccc(F)cc3)c3n(c12)[C@H](C)CN(c1cn(C)c2ccc(C(=O)O)cc12)C3=O` [Example 410, (R)-3-(7-Chloro-10-(3-(4-fluorophenoxy)propyl)-4-methyl-1-oxo-6-(1,3,5-trimethyl-1H-pyrazol-4-yl)-3,4-dihydropyrazino[1,2-a]indol-2(1H)-yl)-1-methyl-1H-indole-5-carboxylic acid] was tested, and the Ki [1] was 1.4 nM and the GI50 [2, 3] was 4000 nM.

`COC(=O)c1ccc2c(c1)c(N1C[C@@H](C)n3c(c(CCCOc4cc(C)c(Cl)c(C)c4)c4ccc(Cl)c(-c5c(C)nn(C)c5C)c43)C1=O)cn2C` (single isomer, unassigned) [Example 204] showed a Ki [1] of 1.1 nM and a GI50 [2, 3] of 1000 nM.

For `CCn1ccc2c(C(=O)O)cc(N3C[C@@H](C)n4c(c(CCCOc5cc(C)c(Cl)c(C)c5)c5ccc(Cl)c(-c6c(C)nn(C)c6C)c54)C3=O)cc21` [Example 99, (R)-6-(7-chloro-10-(3-(4-chloro-3,5-dimethylphenoxy)propyl)-4-methyl-1-oxo-6-(1,3,5-trimethyl-1H-pyrazol-4-yl)-3,4-dihydropyrazino[1,2-a]indol-2(1H)-yl)-1-ethyl-1H-indole-4-carboxylic acid], the Ki [1] was less than 1 nM and the GI50 ([2]; H929 cells, 72 h, Cell TiterGlo, 10% FBS, read-out: GI50 on cellular proliferation of H929 human cancer cell lines) was 2100 nM.

For `Cc1cc(OCCCc2c3n(c4c(-c5c(C)nc(N6CCN(C)CC6)nc5C)c(Cl)ccc24)CCCN(c2cn(C)c4ccc(C(=O)O)cc24)C3=O)cc(C)c1Cl` [Example 228, 3-(8-Chloro-11-(3-(4-chloro-3,5-dimethylphenoxy)propyl)-7-(4,6-dimethyl-2-(4-methylpiperazin-1-yl)pyrimidin-5-yl)-1-oxo-4,5-dihydro-1H-[1,4]diazepino[1,2-a]indol-2(3H)-yl)-1-methyl-1H-indole-5-carboxylic acid], the Ki [1] was 1.6 nM and the GI50 [2, 3] was 780 nM.

Compound `Cc1cc(OCCCc2c3n(c4c(-c5c(C)nn(C)c5C)c(Cl)ccc24)[C@H](C)CN(c2cc(C(=O)O)c4c(cnn4C)c2)C3=O)cc(C)c1Cl` [Example 98, (R)-5-(7-chloro-10-(3-(4-chloro-3,5-dimethylphenoxy)propyl)-4-methyl-1-oxo-6-(1,3,5-trimethyl-1H-pyrazol-4-yl)-3,4-dihydropyrazino[1,2-a]indol-2(1H)-yl)-1-methyl-1H-indazole-7-carboxylic acid] has a Ki [1] of less than 1 nM and a GI50 [2, 3] of 6600 nM.

`Cc1cc(N2C[C@@H](C)n3c(c(CCCOc4cc(C)c(Cl)c(C)c4)c4ccc(Cl)c(-c5c(C)nn(CCN6CCCC6)c5C)c43)C2=O)c2c(c1)cc(C(=O)O)n2C` [Example 463, (R)-7-(7-Chloro-10-(3-(4-chloro-3,5-dimethylphenoxy)propyl)-6-(3,5-dimethyl-1-(2-(pyrrolidin-1-yl)ethyl)-1H-pyrazol-4-yl)-4-methyl-1-oxo-3,4-dihydropyrazino[1,2-a]indol-2(1H)-yl)-1,5-dimethyl-1H-indole-2-carboxylic acid] showed a Ki [1] of 2.1 nM and a GI50 [2, 3] of 290 nM.

For `Cc1cc(OCCCc2c3n(c4c(-c5c(C)nn(C)c5C)c(Cl)ccc24)[C@H](C)CN(c2cccc4cc(C(=O)O)n(Cc5nccs5)c24)C3=O)cc(C)c1Cl` [Example 298, 7-[(4R)-7-chloro-10-[3-(4-chloro-3,5-dimethyl-phenoxy)propyl]-4-methyl-1-oxo-6-(1,3,5-trimethylpyrazol-4-yl)-3,4-dihydropyrazino[1,2-a]indol-2-yl]-1-(thiazol-2-ylmethyl)indole-2-carboxylic acid], the Ki [1] was less than 1 nM and the GI50 [2, 3] was 290 nM.

Work on `Cc1cc(OCCCc2c3n(c4c(-c5c(C)nn(C)c5C)c(Cl)ccc24)[C@H](C)CN(c2cn(C)c4cc(S(C)(=O)=O)ccc24)C3=O)cc(C)c1Cl` [Example 222, (R)-7-chloro-10-(3-(4-chloro-3,5-dimethylphenoxy)propyl)-4-methyl-2-(1-methyl-6-(methylsulfonyl)-1H-indol-3-yl)-6-(1,3,5-trimethyl-1H-pyrazol-4-yl)-3,4-dihydropyrazino[1,2-a]indol-1(2H)-one] yielded a Ki [1] of 6.9 nM and a GI50 [2, 3] of 3000 nM.

From US11596639B2, “Substituted indole Mcl-1 inhibitors” (Vanderbilt University, priority 2016, dated 2023)
